Read-outs that look alike come from different tables or passages of the source.
Target: canine TRPM8 (Canis lupus familiaris, UniProt Q1A7N1)
Test: In Vitro Canine TRPM8 Functional Assay (Ca2+ fluorescence, icilin activation)
Format: cell-based
Details: for IC50: read-out: IC50; for inhibition at 0.5 µM: compound at 0.5 μM, read-out: % Inh @ 0.5
Outline: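 Eight-point dose-response curves, each point averaging quadruplicate wells, gave EC50 or IC50. Canine TRPM8-expressing HEK293 cells, dye-loaded (Calcium 3), were pre-exposed 5 min to compound, then challenged with icilin at roughly EC80; intracellular Ca2+ read by FLIPR or FDSS fluorescence.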

[1] = 0.2 μM compound, HEK293 cells stably expressing canine TRPM8, icilin activation, read-out: % Inh @ 0.2
[2] = HEK293 cells stably expressing canine TRPM8, icilin activation, average of two or more determinations
[3] = HEK293 cells stably expressing canine TRPM8, icilin activation, eight-point dose-response
[4] = compound at 0.2 μM, canine TRPM8, icilin activation, read-out: % Inh @ 0.2
[5] = canine TRPM8, icilin activation
[6] = compound at 0.2 μM, canine TRPM8, icilin activation

Chain of canine TRPM8 (Q1A7N1 1-1104): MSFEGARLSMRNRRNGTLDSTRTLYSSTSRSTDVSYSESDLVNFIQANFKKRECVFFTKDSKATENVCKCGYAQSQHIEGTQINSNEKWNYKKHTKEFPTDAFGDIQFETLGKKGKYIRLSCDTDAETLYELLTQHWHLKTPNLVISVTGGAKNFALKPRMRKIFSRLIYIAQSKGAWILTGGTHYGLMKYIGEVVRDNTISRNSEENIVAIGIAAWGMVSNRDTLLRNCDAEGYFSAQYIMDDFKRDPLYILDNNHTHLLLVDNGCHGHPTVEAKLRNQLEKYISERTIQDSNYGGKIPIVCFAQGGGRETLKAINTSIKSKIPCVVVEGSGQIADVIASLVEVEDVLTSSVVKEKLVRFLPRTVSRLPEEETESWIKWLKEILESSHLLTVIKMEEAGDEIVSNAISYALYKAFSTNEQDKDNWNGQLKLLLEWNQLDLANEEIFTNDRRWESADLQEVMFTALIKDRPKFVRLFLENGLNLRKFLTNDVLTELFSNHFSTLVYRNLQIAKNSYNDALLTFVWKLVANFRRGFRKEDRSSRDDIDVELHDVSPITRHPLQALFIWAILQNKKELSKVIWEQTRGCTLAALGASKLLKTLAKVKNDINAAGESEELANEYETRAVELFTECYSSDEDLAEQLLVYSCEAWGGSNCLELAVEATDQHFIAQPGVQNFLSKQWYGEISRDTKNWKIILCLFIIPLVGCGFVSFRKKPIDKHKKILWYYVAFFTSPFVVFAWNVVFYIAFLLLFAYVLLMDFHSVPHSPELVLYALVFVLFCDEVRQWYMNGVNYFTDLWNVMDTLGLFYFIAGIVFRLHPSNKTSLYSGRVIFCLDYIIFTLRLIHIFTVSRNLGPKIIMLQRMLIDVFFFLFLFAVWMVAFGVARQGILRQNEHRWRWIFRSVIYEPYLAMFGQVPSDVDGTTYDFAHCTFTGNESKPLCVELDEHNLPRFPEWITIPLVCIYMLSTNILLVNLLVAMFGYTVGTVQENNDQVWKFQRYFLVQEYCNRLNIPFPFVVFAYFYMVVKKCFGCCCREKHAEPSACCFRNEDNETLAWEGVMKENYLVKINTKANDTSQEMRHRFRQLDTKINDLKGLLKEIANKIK

Row | IC50 [3] | inhibition at 0.2 µM [4] | Compound | further results
1 | – | – | Cc1c(N(Cc2ccccc2)S(=O)(=O)c2ccc(F)c(F)c2)sc2ccccc12 [Compound 825, N-(Benzyl)-N-(3-methyl-benzo[b]thiophen-2-yl)-3,4-difluoro-benzenesulfonamide] | inhibition at 0.2 µM [1]: 89%; IC50 [2]: 25 nM
2 | 2.3 nM | 96% | CC(O)c1c(N(Cc2ccc(F)c(C(F)(F)F)c2)S(=O)(=O)c2ccccc2)sc2ccccc12 (stereo not drawn) [Compound 223, N-(4-Fluoro-3-trifluoromethyl-benzyl)-N-[3-(1-hydroxy-ethyl)-benzo[b]thiophen-2-yl]-benzenesulfonamide] | –
3 | – | 37% | CN(C)CCN(c1sc2ccccc2c1Br)S(=O)(=O)c1ccc(C(=O)O)cc1 [Compound 441, N-(3-Bromo-benzo[b]thiophen-2-yl)-N-(2-(dimethylamino)ethyl)-4-carboxy-benzenesulfonamide] | –
4 | 4.7 nM | 105% | O=C(O)c1ccc(S(=O)(=O)N(Cc2ccc(F)c(C(F)(F)F)c2)c2cc3ccccc3s2)c(F)c1 [Compound 686, N-(Benzo[b]thiophen-2-yl)-N-(4-fluoro-3-trifluoromethyl-benzyl)-2-fluoro-4-carboxy-benzenesulfonamide] | –
5 | 3 nM | 102% | O=C(O)c1ccc(S(=O)(=O)N(CCCCC(F)(F)F)c2sc3ccccc3c2Br)c(F)c1 [Compound 707, N-(3-Bromo-benzo[b]thiophen-2-yl)-N-(5,5,5-trifluoro-pentyl)-2-fluoro-4-carboxy-benzenesulfonamide] | –
6 | 8.6 nM | 96% | CC(=O)c1ccc(S(=O)(=O)N(Cc2ccc(F)c(C(F)(F)F)c2)c2sc3ccccc3c2C)cc1 [Compound 352, N-(3-Methyl-benzo[b]thiophen-2-yl)-N-(4-fluoro-3-trifluoromethyl-benzyl)-4-acetyl-benzenesulfonamide] | –
7 | 2.3 nM | 105% | Cc1c(N(Cc2ccc(F)c(C(F)(F)F)c2)S(=O)(=O)c2ccc(-c3nnn[nH]3)cc2)sc2ccccc12 [Compound 542, N-(3-Methyl-benzo[b]thiophen-2-yl)-N-(4-fluoro-3-trifluoromethyl-benzyl)-4-(1H-tetrazol-5-yl)-benzenesulfonamide] | –
8 | – | – | CCS(=O)(=O)N(Cc1c(F)cnc(F)c1F)c1sc2ccccc2c1C [Compound 840, N-(3-Methyl-benzo[b]thiophen-2-yl)-N-(2,3,5-trifluoro-pyridin-4-ylmethyl)-ethanesulfonamide] | inhibition at 0.2 µM [1]: 71.1%; IC50 [2]: 98.1 nM
9 | 22 nM | – | O=S(=O)(c1ccccc1)N(CCc1ccccc1)c1sc2ccccc2c1Br [Compound 233, N-(3-Bromo-benzo[b]thiophen-2-yl)-N-(phenethyl)-benzenesulfonamide] | inhibition at 0.5 µM [5]: 93%
10 | 13.3 nM | 100% | CC(=O)c1c(N(Cc2ccccc2)S(=O)(=O)c2ccc(Br)cc2)sc2ccccc12 [Compound 732, N-(3-Acetyl-benzo[b]thiophen-2-yl)-N-(benzyl)-4-bromobenzenesulfonamide] | –
11 | 28.3 nM | – | COc1cc(CN(c2cc3ccccc3s2)S(=O)(=O)c2ccccc2)ccc1F [Compound 60, N-(Benzo[b]thiophen-2-yl)-N-(4-fluoro-3-methoxy-benzyl)-benzenesulfonamide] | inhibition at 0.5 µM [5]: 97%
12 | 55 nM | – | Cc1c(N(Cc2ccc(F)c(C(F)(F)F)c2)S(=O)(=O)c2ccc3c(c2)NC(=O)CO3)sc2ccccc12 [Compound 67] | % Inh @ 0.2 (μM) [6]: 77%
13 | 5 nM | 92% | CCS(=O)(=O)N(Cc1ccc(F)c(F)c1)c1sc2ccccc2c1C(C)O (stereo not drawn) [Compound 221, N-(3,4-Difluoro-benzyl)-N-[3-(1-hydroxy-ethyl)-benzo[b]thiophen-2-yl]-ethanesulfonamide] | –
14 | – | 25% | O=C1CC[C@H](CN(c2sc3ccccc3c2Br)S(=O)(=O)c2ccccc2)N1 [Compound 258, (R)—N-(3-Bromo-benzo[b]thiophen-2-yl)-N-(5-oxo-pyrrolidin-2-ylmethyl)-benzenesulfonamide] | –
15 | – | 52.3% | CCCCN(c1sc2ccccc2c1Br)S(=O)(=O)NC [Compound 554, N-(3-Bromo-benzo[b]thiophen-2-yl)-N-(butyl)-N′-methyl-sulfamide] | –
16 | 4 nM | 102% | Nc1ccc(S(=O)(=O)N(Cc2ccc(F)c(C(F)(F)F)c2)c2sc3ccccc3c2Br)cc1 [Compound 650, 4-Amino-N-(3-bromo-benzo[b]thiophen-2-yl)-N-(4-fluoro-3-trifluoromethyl-benzyl)-benzenesulfonamide] | –
17 | – | 50.1% | Cc1c(N(CCCCC(F)(F)F)S(=O)(=O)C(F)(F)F)sc2ccccc12 [Compound 662, C,C,C-Trifluoro-N-(3-methyl-benzo[b]thiophen-2-yl)-N-(5,5,5-trifluoro-pentyl)-methanesulfonamide] | –
18 | 30 nM | 87% | O=S(=O)(c1ccccc1)N(CCN1CCCCC1)c1sc2ccccc2c1Br [Compound 256, N-(3-Bromo-benzo[b]thiophen-2-yl)-N-(2-piperidin-1-yl-ethyl)-benzenesulfonamide] | –
19 | 12.7 nM | 102% | O=S(=O)(c1ccccc1)N(CCC(F)(F)F)c1sc2ccccc2c1Br [Compound 250, N-(3-Bromo-benzo[b]thiophen-2-yl)-N-(3,3,3-trifluoro-propyl)-benzenesulfonamide] | –
20 | – | 30% | COc1ccc(S(=O)(=O)N(Cc2ccc(F)c(C(F)(F)F)c2)c2cc3ccccc3s2)cc1 [Compound 134, N-(Benzo[b]thiophen-2-yl)-N-(4-fluoro-3-trifluoromethyl-benzyl)-4-methoxy-benzenesulfonamide] | –
21 | – | 47% | CS(=O)(=O)Nc1cccc(S(=O)(=O)N(CCC(F)(F)F)c2cc3ccccc3s2)c1 [Compound 713, N-(Benzo[b]thiophen-2-yl)-3-methanesulfonylamino-N-(3,3,3-trifluoro-propyl)-benzenesulfonamide] | –
22 | 24 nM | 101% | CS(=O)(=O)Nc1cccc(S(=O)(=O)N(CCC(F)(F)F)c2sc3ccccc3c2Br)c1 [Compound 715, N-(3-Bromo-benzo[b]thiophen-2-yl)-3-methanesulfonylamino-N-(3,3,3-trifluoro-propyl)-benzenesulfonamide] | –
23 | 74.9 nM | 75.3% | Cc1c(N(CCCC(F)(F)F)S(=O)(=O)CC(F)(F)F)sc2ccccc12 [Compound 672, N-(3-Methyl-benzo[b]thiophen-2-yl)-N-(4,4,4-trifluoro-butyl)-2,2,2-trifluoro-ethanesulfonamide] | –
24 | 3 nM | 88% | CCS(=O)(=O)N(Cc1ccc(F)c(C(F)(F)F)c1)c1sc2ccccc2c1CO [Compound 217, N-(4-Fluoro-3-trifluoromethyl-benzyl)-N-(3-hydroxymethyl-benzo[b]thiophen-2-yl)-ethanesulfonamide] | –
25 | 24 nM | – | N/C(=N\O)c1ccc(S(=O)(=O)N(Cc2ccc(F)c(C(F)(F)F)c2)c2cc3ccccc3s2)cc1 [Compound 482, N-(Benzo[b]thiophen-2-yl)-N-(4-fluoro-3-trifluoromethyl-benzyl)-4-N-hydroxy-benzamidinesulfonamide] | % Inh @ 0.2 (μM) [6]: 100%
26 | – | – | CCCCN(c1cc2ccccc2s1)S(=O)(=O)c1ccc(C2=NOS(=O)N2)cc1 (stereo not drawn) [Compound 470, N-(Benzo[b]thiophen-2-yl)-N-(butyl)-4-(3H-[1,2,3,5]oxathiadiazole-2-oxide)-benzenesulfonamide] | % Inh @ 0.2 (μM) [6]: 15%
27 | – | – | O=S(=O)(c1ccccc1)N(C[C@@H](O)CO)c1sc2ccccc2c1Br [Compound 235, (R)—N-(3-Bromo-benzo[b]thiophen-2-yl)-N-(2,3-dihydroxy-propyl)-benzenesulfonamide] | inhibition at 0.5 µM [5]: 51%
28 | – | 35% | Cc1c(N(Cc2ccc(F)c(C(F)(F)F)c2)S(=O)(=O)c2ccc(C(=O)O)o2)sc2ccccc12 [Compound 529, N-(3-Methyl-benzo[b]thiophen-2-yl)-N-(4-fluoro-3-trifluoromethyl-benzyl)-5-carboxy-furan-2-yl-sulfonamide] | –
29 | – | 102% | COC(=O)[C@H](C)CN(c1sc2ccccc2c1Br)S(=O)(=O)c1ccccc1 [Compound 245, N-(3-Bromo-benzo[b]thiophen-2-yl)-N-[2(R)-methyl-2-carbomethoxy-ethyl]-benzenesulfonamide] | –
30 | – | 38% | CCN(c1sc2ccccc2c1C)S(=O)(=O)c1ccc(C(=O)OC)cc1 [Compound 402, N-(3-Methyl-benzo[b]thiophen-2-yl)-N-(ethyl)-4-carbomethoxy-benzenesulfonamide] | –

Row | Compound | IC50 [3] | inhibition at 0.2 µM [4] | further results
31 | O=C(O)c1ccc(S(=O)(=O)N(C[C@@H]2C[C@@H]3CC[C@H]2C3)c2sc3ccccc3c2Br)cc1 [Compound 439, RS,RS—N-(Bicyclo[2.2.1]heptan-2-ylmethyl)-N-(3-bromobenzo[b]thiophen-2-yl)-4-carboxy-benzenesulfonamide] | 2 nM | – | % Inh @ 0.2 (μM) [6]: 86%
32 | N-(3-Methyl-benzo[b]thiophen-2-yl)-N-(4-fluoro-3-trifluoromethyl-benzyl)-4-pyrazol-1-yl-benzenesulfonamide [Compound 332] | 7 nM | – | % Inh @ 0.2 (μM) [6]: 100%
33 | Cc1c(N(Cc2ccc(S(C)(=O)=O)cc2)S(=O)(=O)c2ccc(C(=O)O)cc2)sc2ccccc12 [Compound 492, N-(3-Methyl-benzo[b]thiophen-2-yl)-N-(4-methylsulfone-benzyl)-4-carboxy-benzenesulfonamide] | 62 nM | – | % Inh @ 0.2 (μM) [6]: 91%
34 | COP(=O)(CCN(c1sc2ccccc2c1Br)S(=O)(=O)c1ccccc1)OC [Compound 254, N-(3-Bromo-benzo[b]thiophen-2-yl)-N-(dimethoxyphosphinoyl-ethyl)-benzenesulfonamide] | 125 nM | – | inhibition at 0.2 µM (read-out: % Inh @ 0.2 (μM)): 58%
